Assay results as given in patent publication US5393729A, “3-aryl-pyrone derivatives” (Bayer Aktiengesellschaft, priority 1992, dated 1995).
Read-outs that look alike come from different tables or passages of the source.

Assays:
[1] = tested on: larvae of the green rice cicada (Nephotettix cincticeps); assay: whole plant or invertebrate; type: in vivo; conditions: 144 h, read-out: destruction of cicadas
Procedure: (§1) Solvent: 7 parts by weight of dimethylformamide
(§2) Emulsifier: 1 part by weight of alkylaryl polyglycol ether
(§3) To produce a suitable preparation of active compound, 1 part by weight of active compound is mixed with the stated amount of solvent and the stated amount of emulsifier, and the concentrate is diluted with water to the desired concentration.
Rice seedlings (Oryza satira) are treated by being dipped into the preparation of active compound of the desired concentration and are infested with larvae of the green rice cicada (Nephotettix cincticeps) while the seedlings are still moist.
After the specified period of time, the destruction in % is determined. 100% means that all the cicadas have been killed; 0% means that none of the cicadas have been killed.

[2] = tested on: common spider mite or greenhouse red spider mite (Tetranychus urticae); assay: Tetranychus test (OP resistant); type: in vivo; conditions: 168 h, read-out: destruction of spider mites
Procedure: Tetranychus test (OP resistant)
as §1, §2, §3
Bean plants (Phaseolus vulgaris) which are heavily infested with all development stages of the common spider mite or greenhouse red spider mite (Tetranychus urticae) are treated by being dipped into the preparation of active compound of the desired concentration.
After the specified period of time, the destruction in % is determined. 100% means that all the spider mites have been killed; 0% means that none of the spider mites have been killed.

Trichinella spiralis = Trichinella spiralis in vitro; conditions: 120 h, 5 days at 19° C., read-out: destruction (very good action)
Procedure: Trichinella spiralis in vitro
Trichina larvae are isolated from the muscles of mice and washed with 0.9% NaCl supplemented with 20 μg/ml sisomycin and 2 μg/ml of clotrimazole. The actual incubation for approximately 20 trichinas per measurement was effected in 2 ml of a solution consisting of 10 g Bacto Casitone, 5 g of yeast (yeast extract), 2.5 g of glucose, 0.4 g of KH2 PO4, 0.4 g of K2 HPO4 per 500 ml, pH 7.2, containing 10 μg/ml of sisomycin and […] of clotrimazole. 10 mg of the substance to be tested are dissolved in 0.5 ml of DMSO, and such an amount is added to the incubation medium that the end concentrations are 100, 10 and 1 μg/ml. After incubation for 5 days at 19° C., the test is evaluated. The following key is used for the evaluation: 0=no action, the number of live larvae and worms is lower than in the case of the control; 2=good action, dead trichinas can be found; 3=very good action, all trichinas are dead.

Setaria = assay: Pre-emergence test, Setaria; type: in vivo; conditions: 504 h, after three weeks, 0%=no action, 100%=total destruction, read-out: % Activity (damage to the plants)
Procedure: (§4) Solvent: 5 parts by weight of acetone
as §2
(§5) To produce a suitable preparation of active compound, 1 part by weight of active compound is mixed with the stated amount of solvent, the stated amount of emulsifier is added and the concentrate is diluted with water to the desired concentration.
(§6) Seeds of the test plants are sown in normal soil and, after 24 hours, watered with the preparation of the active compound. It is expedient to keep constant the amount of water per unit area. The concentration of the active compound in the preparation is of no importance, only the amount of active compound applied per unit area being decisive. After three weeks, the degree of damage to the plants is rated in % damage in comparison to the development of the untreated control. The figures denote:
(§7) 0%=no action (like untreated control)
(§8) In this test, the following results were obtained at an exemplary application rate of 500 g/ha, the active compounds being tolerated well to very well by soya beans: […]

Panicum = assay: Pre-emergence test, Panicum; type: in vivo; conditions: 504 h, after three weeks, 0%=no action, 100%=total destruction, read-out: % Activity (damage to the plants)
Procedure: as §4, §2, §5, §6, §7, §8

Digitaria = assay: Pre-emergence test, Digitaria; type: in vivo; conditions: 504 h, after three weeks, 0%=no action, 100%=total destruction, read-out: % Activity (damage to the plants)
Procedure: as §4, §2, §5, §6, §7, §8

Echinochloa = assay: Pre-emergence test, Echinochloa; type: in vivo; conditions: 504 h, after three weeks, 0%=no action, 100%=total destruction, read-out: % Activity (damage to the plants)
Procedure: as §4, §2, §5, §6, §7, §8

[3] = tested on: Lucilia cuprina resistant larvae; assay: Test with Lucilia cuprina resistant larvae; type: in vivo; conditions: after 24 hours, read-out: degree of destruction
Procedure: Test with Lucilia cuprina resistant larvae
Emulsifier: 35 parts by weight of ethylene glycolmonomethyl ether 35 parts by weight of nonylphenol polyglycol ether
To produce a suitable preparation of active compound, three parts by weight of active compound are mixed with seven parts by weight of the abovementioned mixture and the concentrate thus obtained is diluted with water to the particular desired concentration.
About 20 Lucilia cuprina res. larvae are introduced into a test tube which contains approx. 1 cm^3 of horse meat and 0.5 ml of the preparation of active compound. After 24 hours, the degree of destruction is determined.

[4] = tested on: black bean aphid (Aphis fabae); assay: whole plant or invertebrate; type: in vivo; conditions: active compound concentration 0.1%, bean plants watered, systemic action, read-out: destruction of aphids
Procedure: Aphis test (systemic action)
as §1, §2, §3
Bean plants (Vicia faba) which are heavily infested with the black bean aphid (Aphis fabae) are each watered with 20 ml of the preparation of the active compound of the desired concentration in such a way that the preparation of active compound penetrates the soil without wetting the shoot. The active compound is taken up by the roots and translocated to the shoot.
After the specified period of time, the destruction in % is determined. 100% means that all the aphids have been killed; 0% means that none of the aphids have been killed.

[5] = tested on: mustard beetle larvae (Phaedon cochleariae); assay: Phaedon larvae test; type: in vivo; conditions: 168 h, after 7 days, active compound concentration 0.1%, cabbage leaves dipped, read-out: destruction of beetle larvae
Procedure: as §1, §2, §3
After the specified periods of time, the destruction in % is determined. 100% means that all the beetle larvae have been killed; 0% means that none of the beetle larvae have been killed.

[6] = tested on: caterpillars of the diamond-back moth (Plutella maculipennis); assay: whole plant or invertebrate; type: in vivo; conditions: in Brassica oleracea, 168 h, read-out: destruction of caterpillars
Procedure: as §1, §2, §3
Cabbage leaves (Brassica oleracea) are treated by being dipped into the preparation of active compound of the desired concentration and are infested with caterpillars of the diamond-back moth (Plutella maculipennis) while the leaves are still moist.
After the specified periods of time, the destruction in % is determined. 100% means that all the caterpillars have been killed; 0% means that none of the caterpillars have been killed.

[7] = after 7 days, active compound concentration 0.01%, OP resistant, bean plants dipped

| SMILES | mortality at 0.1 % [1] [%] | activity at 500 g/ha (Setaria) [%] | activity at 500 g/ha (Panicum) [%] | activity at 500 g/ha (Digitaria) [%] | activity at 500 g/ha (Echinochloa) [%] | other results |
| --- | --- | --- | --- | --- | --- | --- |
| CCOC(=O)Oc1cc(C(C)(C)C)oc(=O)c1-c1c(C)cc(C)cc1C [Example 3, 4-ethoxycarbonyloxy-6-tert.-butyl-3-(2,4,6-trimethylphenyl)pyrone] | 100 |  |  |  |  | mortality at 0.01 % [2]: 100% |
| Cc1cc(C)c(-c2c(O)c(C#N)c(-c3ccccc3Cl)oc2=O)c(C)c1 [Example 13] |  |  |  |  |  | killing at 100 ppm (Trichinella spiralis): 100% |
| CCOC(=O)c1c(-c2ccccc2F)oc(=O)c(-c2c(C)cc(C)cc2C)c1O [Example 14] |  |  |  |  |  | killing at 100 ppm (Trichinella spiralis): 100% |
| CCOC(=O)c1c(-c2ccc([N+](=O)[O-])cc2)oc(=O)c(-c2c(C)cc(C)cc2C)c1O [Example 15] |  |  |  |  |  | killing at 100 ppm (Trichinella spiralis): 100% |
| Cc1cc(C)c(-c2c(O)c(C(=O)N3CCOCC3)c(C)oc2=O)c(C)c1 [Example 18] |  |  |  |  |  | killing at 100 ppm (Trichinella spiralis): 100% |
| Cc1cc(C)c(-c2c(O)c(C(=O)c3ccccc3)c(C)oc2=O)c(C)c1 [Example 26] |  |  |  |  |  | killing at 100 ppm (Trichinella spiralis): 100% |
| Cc1cc(C)c(-c2c(O)cc(C(C)(C)C)oc2=O)c(C)c1 [Example 31] | 100 | 70 to 100 | 95 to 100 | 90 to 100 | 70 to 100 | mortality at 0.01 % [2, 7]: 100% |
| Cc1cc(C)c(-c2c(O)c(C)c(C)oc2=O)c(C)c1 [Example 32] | 100 | 70 to 100 | 95 to 100 | 90 to 100 | 70 to 100 | mortality at 1000 ppm [3]: 100%; mortality at 0.1 % [4]: 100% |
| Cc1cc(C)c(-c2c(O)c(C(C)C)c(C)oc2=O)c(C)c1 [Example 33] |  | 70 to 100 | 95 to 100 | 90 to 100 | 70 to 100 |  |
| Cc1cc(C)c(-c2c(O)cc(C)oc2=O)c(C)c1 [Example 34] | 100 | 70 to 100 | 95 to 100 | 90 to 100 | 70 to 100 |  |
| CCc1c(C)oc(=O)c(-c2c(C)cc(C)cc2C)c1O [Example 35] | 100 | 70 to 100 | 95 to 100 | 90 to 100 |  |  |
| CCCc1c(CC)oc(=O)c(-c2c(C)cc(C)cc2C)c1O [Example 37] | 100 | 70 to 100 | 95 to 100 |  | 70 to 100 | killing at 100 ppm (Trichinella spiralis): 100% |
| Cc1cc(C)c(-c2c(O)cc(-c3ccccc3)oc2=O)c(C)c1 [Example 46] |  |  | 95 to 100 | 90 to 100 | 70 to 100 | mortality at 1000 ppm [3]: 100%; mortality at 0.1 % [5]: 100%; mortality at 0.1 % [6]: 100% |
| Cc1cc(C)c(-c2c(O)cc(-c3ccccc3Cl)oc2=O)c(C)c1 [Example 47] |  |  |  |  |  | mortality at 0.1 % [5]: 100% |
| Cc1cc(C)c(-c2c(O)cc(-c3ccccc3F)oc2=O)c(C)c1 [Example 51] | 100 |  |  |  |  |  |
| Cc1cc(C)c(-c2c(O)cc(-c3ccc(F)cc3)oc2=O)c(C)c1 [Example 52] | 100 | 70 to 100 | 95 to 100 | 90 to 100 | 70 to 100 | mortality at 0.1 % [6]: 100% |

| SMILES | mortality at 0.1 % [1] [%] | activity at 500 g/ha (Setaria) [%] | activity at 500 g/ha (Panicum) [%] | activity at 500 g/ha (Digitaria) [%] | activity at 500 g/ha (Echinochloa) [%] | other results |
| --- | --- | --- | --- | --- | --- | --- |
| Cc1cc(C)c(-c2c(O)cc(-c3ccc(Cl)cc3)oc2=O)c(C)c1 [Example 53] |  | 70 to 100 | 95 to 100 | 90 to 100 | 70 to 100 | mortality at 0.1 % [6]: 100% |
| Cc1cc(C)c(-c2c(O)cc(-c3ccco3)oc2=O)c(C)c1 [Example 56] | 100 | 70 to 100 | 95 to 100 |  | 70 to 100 | killing at 100 ppm (Trichinella spiralis): 100% |
| Cc1cc(C)c(-c2c(O)cc(-c3cccs3)oc2=O)c(C)c1 [Example 58] | 100 |  |  |  |  |  |
| Cc1cc(C)c(-c2c(O)cc(-c3cc(Cl)c(Cl)s3)oc2=O)c(C)c1 [Example 60] |  | 70 to 100 | 95 to 100 | 90 to 100 |  |  |
| Cc1cc(C)c(-c2c(O)cc(-c3ccc(Cl)s3)oc2=O)c(C)c1 [Example 61] |  |  |  |  |  | mortality at 0.1 % [6]: 100% |
| Cc1cc(C)c(-c2c(O)cc(-c3cc(C)sc3C)oc2=O)c(C)c1 [Example 62] | 100 |  | 95 to 100 | 90 to 100 |  |  |
| Cc1cc(C)c(-c2c(O)cc(-c3cccnc3)oc2=O)c(C)c1 [Example 63] |  | 70 to 100 | 95 to 100 | 90 to 100 | 70 to 100 |  |
| Cc1cc(C)c(-c2c(O)cc(-c3c(C)cc(C)nc3C)oc2=O)c(C)c1 [Example 65] | 100 |  |  |  |  | mortality at 0.1 % [5]: 100% |
| Cc1cc(C)c(-c2c(O)c3c(oc2=O)CCCC3)c(C)c1 [Example 68] | 100 | 70 to 100 | 95 to 100 | 90 to 100 | 70 to 100 |  |
| Cc1cc(C)c(-c2c(O)c3c(oc2=O)CCC3)c(C)c1 [Example 69] | 100 | 70 to 100 | 95 to 100 | 90 to 100 | 70 to 100 |  |
| Cc1cc(C)c(-c2c(O)c3c(oc2=O)CCOC3)c(C)c1 [Example 71] | 100 |  |  |  |  |  |
| CC(=O)Oc1c(C)c(C)oc(=O)c1-c1c(C)cc(C)cc1C [Example 81] |  | 70 to 100 | 95 to 100 | 90 to 100 | 70 to 100 | mortality at 0.1 % [6]: 100% |
| CC(=O)Oc1cc(C(C)(C)C)oc(=O)c1-c1c(C)cc(C)cc1C [Example 84] | 100 | 70 to 100 | 95 to 100 | 90 to 100 | 70 to 100 | mortality at 0.01 % [2, 7]: 100% |
| Cc1cc(C)c(-c2c(OC(=O)C(C)C)cc(C(C)(C)C)oc2=O)c(C)c1 [Example 85] | 100 |  |  |  |  | mortality at 0.01 % [2, 7]: 100% |
| CCOC(=O)Oc1c(C)c(C)oc(=O)c1-c1c(C)cc(C)cc1C [Example 88] |  | 70 to 100 | 95 to 100 | 90 to 100 |  | mortality at 0.01 % [2, 7]: 100%; mortality at 0.1 % [6]: 100% |
